Experimental findings from patent US20190142949A1, “COVALENT CONJUGATES” (GLAXOSMITHKLINE INTELLECTUAL PROPERTY DEVELOPMENT LIMITED, priority 2015, published 2019) are described below.

Experiment [1] has as its target T1, Bromodomain BRD4 Binding Domain 1 (BD1) [BRD4 (Y390A)] (Homo sapiens, UniProt O60885, Y390A).
T1 construct: made in house; host or cells: E. coli (pET15b vector)
Put plainly: TR-FRET binding assay, Bromodomain BRD4 BD1 mutant assay. To be noted: for IC50: TR-FRET, BRD4 (Y390A) 10 nM, Alexa Fluor647 ligand at Kd, read-out: pIC50 in the BRD4 BD1 assay (converted). The protocol:
Binding was assessed using a time resolved fluorescent resonance energy transfer binding assay. This utilises a 6 His purification tag at the N-terminal of the proteins as an epitope for an anti-6 His antibody labeled with Europium chelate (PerkinElmer AD0111) allowing binding of the Europium to the proteins which acts as the donor fluorophore. A small molecule, high affinity binder of the bromodomain BRD4 has been labeled with Alexa Fluor647 (Reference Compound X) and this acts as the acceptor in the FRET pair.
In the absence of a competing compound, excitation of the Europium causes the donor to emit at λ618 nm which excites the Alexa labelled bromodomain binding compound leading to an increased energy transfer that is measurable at λ647 nM. In the presence of a sufficient concentration of a compound that can bind these proteins, the interaction is disrupted leading to a quantifiable drop in fluorescent resonance energy transfer.
The binding of Examples 1 to 11 to Bromodomain BRD4 was assessed using mutated proteins to detect differential binding to Binding Domain 1 (BD1) on the bromodomain. These single residue mutations in the acetyl lysine binding pocket greatly lower the affinity of the fluoroligand (Reference Compound X) for the mutated domain (>1000 fold selective for the non-mutated domain). Therefore in the final assay conditions, binding of the fluoroligand to the mutated domain cannot be detected and subsequently the assay is suitable to determine the binding of compounds to the single non-mutated bromodomain.
Recombinant Human Bromodomain [BRD4 (Y390A)] was expressed in E colicells (pET15b vector) with a 6-His tag at the N-terminal. […]
All assay components were dissolved in buffer composition of 50 mM HEPES pH7.4, 50 mM NaCl, 5% Glycerol, 1 mM DTT and 1 mM CHAPS. […] Plates were then read on the Envision platereader, (λex=317 nm, donor λem=615 nm; acceptor λem=665 nm; Dichroic LANCE dual). Time resolved fluorescent intensity measurements were made at both emission wavelengths and the ratio of acceptor/donor was calculated and used for data analysis. […]
A general note: TR-FRET usually uses a lanthanide donor and a delayed reading to cut background.

Experiment [2] concerns LPS induced MCP-1 production from human whole blood. Kind of experiment: LPS induced MCP-1 production from human whole blood. It counts as cell-based. Particulars: LPS 200 ng/mL, 18-24 hours, read-out: pIC50, LPS induced MCP-1 production (converted). The protocol:
Activation of monocytic cells by agonists of toll-like receptors such as bacterial lipopolysaccharide (LPS) results in production of key inflammatory mediators including MCP-1. Such pathways are widely considered to be central to the pathophysiology of a range of auto-immune and inflammatory disorders. Blood is collected in a tube containing Sodium heparin (Leo Pharmaceuticals) (10 units of heparin/mL of blood). 96-well compound plates containing 1 μL test sample in 100% DMSO were prepared (two replicates on account of donor variability). 130 μL of whole blood was dispensed into each well of the 96-well compound plates and incubated for 30 min at 37° C., 5% CO2. 10 μL of lipopolysaccharide (from Salmonella typhosa; L6386) made up in PBS (200 ng/mL final assay concentration) was added to each well of the compound plates. The plates were then placed in the humidified primary cell incubator for 18-24 hours at 37° C., 5% CO2. 140 μL of PBS was added to all wells of the compound plates containing blood. The plates were then sealed and centrifuged for 10 mins at 2500 rpm. […] 150 μL of 2×MSD Read Buffer T (stock 4×MSD Read Buffer T was diluted 50:50 with de-ionised water) was then added to each well and the plates read on the MSD Sector Imager 6000. Concentration response curves for each compound were generated from the data and an IC50 value was calculated.

With `Cc1cc(-c2nc3cc(CN[C@@H](CC(C)C)C(=O)OC4CCCC4)ccc3n2CC2CCOCC2)c[nH]c1=O` [Example 3, (S)-cyclopentyl 4-methyl-2-(((2-(5-methyl-6-oxo-1,6-dihydropyridin-3-yl)-1-((tetrahydro-2H-pyran-4-yl)methyl)-1H-benzo[d]imidazol-5-yl)methyl)amino)pentanoate], the figures for the IC50 in experiment [1] and in experiment [2] were 794 nM and 79.4 nM, respectively.

Regarding `Cc1cc(-c2nc3ccccc3n2CC2CCOCC2)c[nH]c1=O` [Example 10, 3-methyl-5-(1-((tetrahydro-2H-pyran-4-yl)methyl)-1H-benzo[d]imidazol-2-yl)pyridin-2(1H)-one], the IC50 is 398 nM in experiment [1] and 2510 nM in experiment [2].

Take `COc1ccc2c(c1)C(c1ccc(Cl)cc1)=N[C@@H](CC(=O)NCCCCCNC(=O)CCCCCC1(C)/C(=C/C=C/C=C/C3=[N+](CCCCS(=O)(=O)O)c4ccc(S(=O)(=O)O)cc4C3(C)C)N(CCCCS(=O)(=O)[O-])c3ccc(S(=O)(=O)O)cc31)c1nnc(C)n1-2` (some centres unmarked) [Reference Compound X, reference compound]: the “selectivity of the fluoroligand for the non-mutated domain over the mutated domain” value in experiment [1] (single residue mutations in the acetyl lysine binding pocket) was above 1000 fold.
